{"source": "patent US4829076A", "about": "“Novel dihydropyridines having calcium antagonistic and antihypertensive activity” (Alkaloida Vegyeszeti Gyar, priority 1986, dated 1989)", "key": {"[1]": {"biological_target": "T1, potential-mediated calcium channel (Rattus norvegicus, UniProt P22002)", "T1 construct": "Portal veins were obtained from decapitated male rats; from tissue; host or cells: rat portal vein (longitudinally incised venous segment)", "T1 sequence (P22002 whole entry)": "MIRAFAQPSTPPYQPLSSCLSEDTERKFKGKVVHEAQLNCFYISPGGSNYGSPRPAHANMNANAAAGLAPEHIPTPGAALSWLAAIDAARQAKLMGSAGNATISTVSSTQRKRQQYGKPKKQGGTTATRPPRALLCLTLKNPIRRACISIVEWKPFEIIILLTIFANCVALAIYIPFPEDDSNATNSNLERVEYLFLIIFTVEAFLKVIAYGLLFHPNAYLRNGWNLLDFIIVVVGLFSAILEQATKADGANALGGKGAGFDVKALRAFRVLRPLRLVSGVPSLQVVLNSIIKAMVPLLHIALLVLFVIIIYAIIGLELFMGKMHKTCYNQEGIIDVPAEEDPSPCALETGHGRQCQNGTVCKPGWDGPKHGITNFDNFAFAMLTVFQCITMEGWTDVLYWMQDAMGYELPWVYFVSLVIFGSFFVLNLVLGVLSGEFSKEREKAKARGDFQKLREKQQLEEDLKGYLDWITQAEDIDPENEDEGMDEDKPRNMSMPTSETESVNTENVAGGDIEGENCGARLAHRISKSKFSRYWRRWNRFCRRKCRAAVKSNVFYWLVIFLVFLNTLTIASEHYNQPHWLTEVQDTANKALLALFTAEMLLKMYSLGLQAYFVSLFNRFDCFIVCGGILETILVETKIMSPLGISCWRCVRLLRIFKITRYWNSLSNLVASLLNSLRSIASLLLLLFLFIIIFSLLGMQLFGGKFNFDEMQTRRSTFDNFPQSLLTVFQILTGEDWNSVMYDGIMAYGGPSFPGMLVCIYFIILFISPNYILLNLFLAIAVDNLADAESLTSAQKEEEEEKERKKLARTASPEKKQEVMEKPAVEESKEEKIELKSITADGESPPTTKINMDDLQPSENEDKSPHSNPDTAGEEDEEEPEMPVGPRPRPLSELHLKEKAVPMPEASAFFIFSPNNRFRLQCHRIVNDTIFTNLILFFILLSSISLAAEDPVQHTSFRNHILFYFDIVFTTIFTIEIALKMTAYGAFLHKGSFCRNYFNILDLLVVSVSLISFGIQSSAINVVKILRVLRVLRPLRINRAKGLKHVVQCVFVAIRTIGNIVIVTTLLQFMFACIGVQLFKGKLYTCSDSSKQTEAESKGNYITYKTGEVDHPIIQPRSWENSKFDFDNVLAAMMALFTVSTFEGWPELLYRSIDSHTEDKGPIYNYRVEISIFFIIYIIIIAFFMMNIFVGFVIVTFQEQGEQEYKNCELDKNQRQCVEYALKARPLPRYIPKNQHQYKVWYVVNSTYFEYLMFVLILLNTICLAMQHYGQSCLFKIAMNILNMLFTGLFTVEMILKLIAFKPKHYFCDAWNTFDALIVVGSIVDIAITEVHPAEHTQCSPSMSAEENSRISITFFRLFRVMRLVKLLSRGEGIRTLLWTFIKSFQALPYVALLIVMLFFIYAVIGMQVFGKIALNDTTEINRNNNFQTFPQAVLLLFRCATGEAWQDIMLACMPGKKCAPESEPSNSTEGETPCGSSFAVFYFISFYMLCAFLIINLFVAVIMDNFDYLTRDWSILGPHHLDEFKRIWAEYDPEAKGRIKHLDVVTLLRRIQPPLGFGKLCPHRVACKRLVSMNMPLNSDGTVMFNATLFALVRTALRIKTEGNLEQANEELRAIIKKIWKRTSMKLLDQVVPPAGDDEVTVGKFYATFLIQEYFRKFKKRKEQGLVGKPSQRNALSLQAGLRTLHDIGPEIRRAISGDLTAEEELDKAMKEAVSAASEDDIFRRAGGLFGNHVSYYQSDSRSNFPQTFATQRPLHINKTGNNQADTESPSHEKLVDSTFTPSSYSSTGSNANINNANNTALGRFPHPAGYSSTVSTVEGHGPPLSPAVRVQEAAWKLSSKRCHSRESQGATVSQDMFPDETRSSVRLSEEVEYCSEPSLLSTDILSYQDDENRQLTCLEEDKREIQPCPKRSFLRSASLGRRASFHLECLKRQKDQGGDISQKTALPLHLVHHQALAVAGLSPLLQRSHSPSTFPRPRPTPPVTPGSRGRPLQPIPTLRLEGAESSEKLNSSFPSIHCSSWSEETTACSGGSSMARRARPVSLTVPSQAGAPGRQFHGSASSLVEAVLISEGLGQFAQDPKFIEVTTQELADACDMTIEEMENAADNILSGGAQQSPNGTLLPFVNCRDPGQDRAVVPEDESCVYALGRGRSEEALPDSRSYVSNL", "T1 sequence (P54290 25-943 partner limits assumed)": "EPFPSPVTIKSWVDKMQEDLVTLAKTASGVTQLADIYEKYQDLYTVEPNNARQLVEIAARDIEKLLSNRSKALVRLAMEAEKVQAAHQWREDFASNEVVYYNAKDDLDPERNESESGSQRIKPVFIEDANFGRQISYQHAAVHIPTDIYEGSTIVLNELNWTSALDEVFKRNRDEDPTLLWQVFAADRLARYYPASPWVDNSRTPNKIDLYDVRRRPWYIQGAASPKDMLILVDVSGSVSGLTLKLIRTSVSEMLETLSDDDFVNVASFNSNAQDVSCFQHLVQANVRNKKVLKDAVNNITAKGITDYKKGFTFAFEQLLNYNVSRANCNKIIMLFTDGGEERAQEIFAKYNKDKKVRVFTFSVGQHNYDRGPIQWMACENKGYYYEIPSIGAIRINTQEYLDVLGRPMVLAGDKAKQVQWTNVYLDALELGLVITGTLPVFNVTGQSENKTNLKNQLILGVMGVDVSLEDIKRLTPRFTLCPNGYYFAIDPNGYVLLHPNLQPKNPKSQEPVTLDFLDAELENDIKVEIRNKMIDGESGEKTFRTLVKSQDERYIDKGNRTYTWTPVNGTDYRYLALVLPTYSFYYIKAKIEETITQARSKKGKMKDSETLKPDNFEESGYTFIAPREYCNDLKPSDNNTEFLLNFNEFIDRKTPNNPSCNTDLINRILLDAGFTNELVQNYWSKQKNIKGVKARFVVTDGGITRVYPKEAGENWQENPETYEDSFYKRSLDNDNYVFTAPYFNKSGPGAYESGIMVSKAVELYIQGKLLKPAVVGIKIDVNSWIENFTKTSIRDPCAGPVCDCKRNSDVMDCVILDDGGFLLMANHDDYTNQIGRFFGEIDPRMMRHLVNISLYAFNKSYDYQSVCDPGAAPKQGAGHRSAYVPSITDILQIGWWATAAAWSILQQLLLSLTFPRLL", "T1 sequence (P54290 944-1091 partner limits assumed)": "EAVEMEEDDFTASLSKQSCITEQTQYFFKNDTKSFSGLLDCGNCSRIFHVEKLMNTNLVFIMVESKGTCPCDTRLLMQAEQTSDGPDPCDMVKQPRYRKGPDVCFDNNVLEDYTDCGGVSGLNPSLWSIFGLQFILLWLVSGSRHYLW", "test": "Calcium-antagonistic effect on an isolated vessel preparation (portal vein)", "conditions": "depolarizing solution (90 mM KCl), CaCl2 2.5 and 5.0 mM, 37° C., pH 7.4, read-out: Inhibition of the potential-mediated calcium channel, IC50", "description": "Portal veins were obtained from decapitated male rats weighing 300 to 350 g. The longitudinally incised venous segment was suspended in an organ chamber (10 ml) filled with physiological saline solution under resting tension of 1 g. Its upper end was attached to a HSI force-displacement transducer. Isometric contractions were recorded with a Beckman Dynograph.\nAfter the initial equilibration period in a calcium-free Krebs-Ringer bicarbonate solution (KRB) the vein was exposed to a depolarizing solution (calcium-free KRB containing 90 mM of KCl) for 10 minutes. In order to determine the cumulative contractile responses CaCl2 was added in an end-concentration of 2.5 and 5.0 mM, resp. Each medium was oxygenated with carbogen gas and maintained at 37° C. and pH 7.4.\nThe influence of the test compounds on the contraction was determined by incubating the veins in the depolarizing solution for 10 minutes before and during exposure to Ca^2+. Each vein preparation was subjected to a single concentration of the test compound.\nFor each experiment the 100% responses were considered as the maximum contractile responses during the control Ca curves. The contractions after exposure to the test compounds were expressed as the percentage of these values."}, "[2]": {"system": "conscious rats with renal hypertension", "test": "Antihypertensive effect in rats with renal hypertension (\"RH\" rats)", "format": "in vivo, rat (CFY male)", "conditions": "for Systolic blood pressure, 0 h: 0 h (baseline)", "experimental": "The test was performed according to the method of Grollman [Proc. Soc. Exptl. […] The test compounds were administered orally."}, "[3]": {"system": "conscious rats with DOCA-induced hypertension", "test": "Antihypertensive effect in rats with DOCA-induced hypertension (\"DH\" rats)", "format": "in vivo, rat", "conditions": "for Systolic blood pressure, 0 h: 0 h (baseline)", "experimental": "The test was performed according to Cunning et al. [J. Pharm. Exp. Ther. 161, 88 (1981)]."}, "[4]": {"system": "spontaneously hypertensive conscious rats", "test": "Antihypertensive effect in spontaneously hypertensive conscious rats (\"SH\" rats)", "format": "in vivo, rat (Wistar-Okamoto)", "conditions": "for change in vivo at 5 mg/kg / change in vivo at 10 mg/kg / change in vivo at 2.5 mg/kg: Rattus norvegicus, po", "experimental": "The blood pressure of rats was measured before treatment and hourly after drug administration till the 24th posttreatment hour. The test compounds were administered orally, by gavage."}, "[5]": {"system": "anesthetized, normotensive cats", "test": "Hypotensive effect in anesthetized, normotensive cats", "format": "in vivo, cat", "conditions": "1 mg/kg id.", "experimental": "A tube was inserted in the trachea of cats anesthetized with ip.35 mg/kg of pentobarbital sodium to ensure spontaneous respiration. The femoral artery and vein were both cannulated unilaterally. The vegetative test compounds (adrenaline, isoproterenol) were administered through the venous cannule. The mean arterial blood pressure was measured by joining the arterial cannule to a Statham P23Db pressure transducer and electromanometer. The heart rate was determined by a cardiotachometer triggered by arterial pulse-wave.\nVarious doses of the test compounds were administered through a cannule inserted into the duodenum."}, "[6]": {"biological_target": "T2, 1,4-dihydropyridine receptor", "T2 construct": "to the heart microsomal preparation; from tissue; host or cells: heart microsomal preparation", "test": "Receptor binding studies (displacement of 3H-nitrendipine, heart microsomal preparation)", "conditions": "displacement of 50% of 3H-nitrendipine"}}, "note": "Where two headings read alike, the source gives them in different places."}
{"compound": "COC(=O)C1=C(C)NC(C)=C(C(=O)OC)C1c1ccccc1NC(=O)c1ccc([N+](=O)[O-])cc1", "note": "[Example 7]", "values": [{"measurement": "IC50", "setting": "[1]", "result": 0.5, "unit": "nM"}, {"measurement": "Systolic blood pressure, 0 h", "setting": "[2]; 5 mg/kg p.o.", "result": 206.6, "unit": "Hgmm"}, {"measurement": "Pressure reduction in %, 2 h", "setting": "[2]; 5 mg/kg p.o.", "result": -15, "unit": "%"}, {"measurement": "Systolic blood pressure, 2 h", "setting": "[2]; 5 mg/kg p.o.", "result": 177.7, "unit": "Hgmm"}, {"measurement": "Pressure reduction in %, 5 h", "setting": "[2]; 5 mg/kg p.o.", "result": -13, "unit": "%"}, {"measurement": "Systolic blood pressure, 5 h", "setting": "[2]; 5 mg/kg p.o.", "result": 188.6, "unit": "Hgmm"}, {"measurement": "Pressure reduction in %, 24 h", "setting": "[2]; 5 mg/kg p.o.", "result": "+3%"}, {"measurement": "Systolic blood pressure, 24 h", "setting": "[2]; 5 mg/kg p.o.", "result": 213.3, "unit": "Hgmm"}, {"measurement": "Systolic blood pressure, 0 h", "setting": "[2]; 10 mg/kg p.o.", "result": 198.8, "unit": "Hgmm"}, {"measurement": "Pressure reduction in %, 2 h", "setting": "[2]; 10 mg/kg p.o.", "result": -31, "unit": "%"}, {"measurement": "Systolic blood pressure, 2 h", "setting": "[2]; 10 mg/kg p.o.", "result": 138.8, "unit": "Hgmm"}, {"measurement": "Pressure reduction in %, 5 h", "setting": "[2]; 10 mg/kg p.o.", "result": -25, "unit": "%"}, {"measurement": "Systolic blood pressure, 5 h", "setting": "[2]; 10 mg/kg p.o.", "result": 150.0, "unit": "Hgmm"}, {"measurement": "Pressure reduction in %, 24 h", "setting": "[2]; 10 mg/kg p.o.", "result": "+6%"}, {"measurement": "Systolic blood pressure, 24 h", "setting": "[2]; 10 mg/kg p.o.", "result": 212.2, "unit": "Hgmm"}, {"measurement": "Systolic blood pressure, 0 h", "setting": "[3]; 5 mg/kg p.o.", "result": 176.8, "unit": "Hgmm"}, {"measurement": "Pressure reduction in %, 2 h", "setting": "[3]; 5 mg/kg p.o.", "result": -24, "unit": "%"}, {"measurement": "Systolic blood pressure, 2 h", "setting": "[3]; 5 mg/kg p.o.", "result": 135.7, "unit": "Hgmm"}, {"measurement": "Pressure reduction in %, 5 h", "setting": "[3]; 5 mg/kg p.o.", "result": -16, "unit": "%"}, {"measurement": "Systolic blood pressure, 5 h", "setting": "[3]; 5 mg/kg p.o.", "result": 149.4, "unit": "Hgmm"}, {"measurement": "Pressure reduction in %, 24 h", "setting": "[3]; 5 mg/kg p.o.", "result": "+2%"}, {"measurement": "Systolic blood pressure, 24 h", "setting": "[3]; 5 mg/kg p.o.", "result": 180.8, "unit": "Hgmm"}, {"measurement": "Systolic blood pressure, 0 h", "setting": "[3]; 10 mg/kg p.o.", "result": 176.2, "unit": "Hgmm"}, {"measurement": "Pressure reduction in %, 2 h", "setting": "[3]; 10 mg/kg p.o.", "result": -28, "unit": "%"}, {"measurement": "Systolic blood pressure, 2 h", "setting": "[3]; 10 mg/kg p.o.", "result": 126.7, "unit": "Hgmm"}, {"measurement": "Pressure reduction in %, 5 h", "setting": "[3]; 10 mg/kg p.o.", "result": -17, "unit": "%"}, {"measurement": "Systolic blood pressure, 5 h", "setting": "[3]; 10 mg/kg p.o.", "result": 147.5, "unit": "Hgmm"}, {"measurement": "Pressure reduction in %, 24 h", "setting": "[3]; 10 mg/kg p.o.", "result": 0, "unit": "%"}, {"measurement": "Systolic blood pressure, 24 h", "setting": "[3]; 10 mg/kg p.o.", "result": 177.5, "unit": "Hgmm"}, {"measurement": "Systolic blood pressure, 2 h", "setting": "[4]; 5 mg/kg p.o., 2 h", "result": 175.2, "unit": "Hgmm"}, {"measurement": "Systolic blood pressure, 5 h", "setting": "[4]; 5 mg/kg p.o., 5 h", "result": 157.6, "unit": "Hgmm"}, {"measurement": "Systolic blood pressure, 24 h", "setting": "[4]; 5 mg/kg p.o., 24 h", "result": 217.6, "unit": "Hgmm"}, {"measurement": "Systolic blood pressure, 2 h", "setting": "[4]; 10 mg/kg p.o., 2 h", "result": 164.0, "unit": "Hgmm"}, {"measurement": "Systolic blood pressure, 5 h", "setting": "[4]; 10 mg/kg p.o., 5 h", "result": 164.0, "unit": "Hgmm"}, {"measurement": "Systolic blood pressure, 24 h", "setting": "[4]; 10 mg/kg p.o., 24 h", "result": 230.0, "unit": "Hgmm"}, {"measurement": "change in vivo at 5 mg/kg", "setting": "[4]; 5 mg/kg p.o., 2 h, read-out: Systolic blood pressure reduction in %, 2 h", "result": -15, "unit": "%"}, {"measurement": "change in vivo at 5 mg/kg", "setting": "[4]; 5 mg/kg p.o., 5 h, read-out: Systolic blood pressure reduction in %, 5 h", "result": -24, "unit": "%"}, {"measurement": "change in vivo at 5 mg/kg", "setting": "[4]; 5 mg/kg p.o., 24 h, read-out: Systolic blood pressure reduction in %, 24 h", "result": 5, "unit": "%"}, {"measurement": "change in vivo at 10 mg/kg", "setting": "[4]; 10 mg/kg p.o., 2 h, read-out: Systolic blood pressure reduction in %, 2 h", "result": -28, "unit": "%"}, {"measurement": "change in vivo at 10 mg/kg", "setting": "[4]; 10 mg/kg p.o., 5 h, read-out: Systolic blood pressure reduction in %, 5 h", "result": -28, "unit": "%"}, {"measurement": "change in vivo at 10 mg/kg", "setting": "[4]; 10 mg/kg p.o., 24 h, read-out: Systolic blood pressure reduction in %, 24 h", "result": 1, "unit": "%"}, {"measurement": "Mean arterial pressure, 5 min", "setting": "[5]", "result": 115, "unit": "Hgmm"}, {"measurement": "Mean arterial pressure, 15 min", "setting": "[5]", "result": 60, "unit": "Hgmm"}, {"measurement": "Mean arterial pressure, 30 min", "setting": "[5]", "result": 50, "unit": "Hgmm"}, {"measurement": "Mean arterial pressure, 60 min", "setting": "[5]", "result": 60, "unit": "Hgmm"}, {"measurement": "Mean arterial pressure, 120 min", "setting": "[5]", "result": 85, "unit": "Hgmm"}, {"measurement": "IC50", "setting": "[6]", "result": "6.3 ± 0.05", "unit": "nM"}]}
{"compound": "COC(=O)C1=C(C)NC(C)=C(C(=O)OC)C1c1ccccc1NC(=O)c1ccc(C)cc1", "note": "[Example 15]", "values": [{"measurement": "IC50", "setting": "[1]", "result": 3, "unit": "nM"}, {"measurement": "Systolic blood pressure, 2 h", "setting": "[4]; 2.5 mg/kg p.o., 2 h", "result": 141.4, "unit": "Hgmm"}, {"measurement": "Systolic blood pressure, 5 h", "setting": "[4]; 2.5 mg/kg p.o., 5 h", "result": 139.2, "unit": "Hgmm"}, {"measurement": "Systolic blood pressure, 24 h", "setting": "[4]; 2.5 mg/kg p.o., 24 h", "result": 193.8, "unit": "Hgmm"}, {"measurement": "change in vivo at 2.5 mg/kg", "setting": "[4]; 2.5 mg/kg p.o., 2 h, read-out: Systolic blood pressure reduction in %, 2 h", "result": -31, "unit": "%"}, {"measurement": "change in vivo at 2.5 mg/kg", "setting": "[4]; 2.5 mg/kg p.o., 5 h, read-out: Systolic blood pressure reduction in %, 5 h", "result": -32, "unit": "%"}, {"measurement": "change in vivo at 2.5 mg/kg", "setting": "[4]; 2.5 mg/kg p.o., 24 h, read-out: Systolic blood pressure reduction in %, 24 h", "result": -5, "unit": "%"}, {"measurement": "Mean arterial pressure, 5 min", "setting": "[5]", "result": 90, "unit": "Hgmm"}, {"measurement": "Mean arterial pressure, 15 min", "setting": "[5]", "result": 65, "unit": "Hgmm"}, {"measurement": "Mean arterial pressure, 30 min", "setting": "[5]", "result": 65, "unit": "Hgmm"}, {"measurement": "Mean arterial pressure, 60 min", "setting": "[5]", "result": 73, "unit": "Hgmm"}, {"measurement": "Mean arterial pressure, 120 min", "setting": "[5]", "result": 90, "unit": "Hgmm"}, {"measurement": "IC50", "setting": "[6]", "result": "15.5 ± 3.5", "unit": "nM"}]}
